Laboratory results published in US10179790B2 (THOMAS HELLEDAYS STIFTELSE FOR MEDICINSK FORSKNING, priority 2014, dated 2019).

Tests used:
MTH1 = MTH1 (Homo sapiens, UniProt P36639); assay: MTH1 enzymatic assay and IC50 value determination (malachite green, 96- and 384-well format); type: biochemical; conditions: hydrolysis of dGTP (100 μM), MTH1 6 nM, pyrophosphatase-coupled malachite green, 15 minutes at 22° C.
Outline: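 MTH1 (6 nM) hydrolysed dGTP (100 μM) for 15 min at 22 °C in Tris-acetate buffer with Mg2+, DTT, Tween 20 and excess pyrophosphatase, 1% DMSO. Pi detected with malachite green at 630 nm. IC50 from nonlinear 4-parameter fit of 11–12-point dilution series.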

cancer cell = assay: Cell viability assay (resazurin); type: cell-based; conditions: 72 h; 3 days with compound, resazurin fluorescence; cell line not named
Outline: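 Cells in DMEM GlutaMAX or line-appropriate medium are exposed to compound for 3 days at 37 °C, 5% CO2. Viability is read as resazurin fluorescence (Ex544/Em590) after 2 h incubation. In the 384-well format, cells are seeded onto 11 pre-dispensed concentrations (final DMSO <1%) and read after 3 h resazurin.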

Compound | IC50 (MTH1) [nM] | IC50 (cancer cell) [nM]
Cc1nc2ccc(NCC(C)(C)CNc3cc(-c4cccc(Cl)c4C)nc(N)n3)cc2s1 [Example 165, 6-(3-chloro-2-methyl-phenyl)-N4-[2,2-dimethyl-3-[(2-methyl-1,3-benzothiazol-6-yl)amino]propyl]pyrimidine-2,4-diamine] | < 200 | < 500
Cc1c(Cl)cccc1-c1cc(NCCNc2cccc(S(=O)(=O)C(C)C)c2)nc(N)n1 [Example 166, 6-(3-Chloro-2-methyl-phenyl)-N4-[2-(3-isopropylsulfonylanilino)ethyl]pyrimidine-2,4-diamine] | < 200 | < 500
Cc1c(Cl)cccc1-c1cc(NCCCNc2ccc(C(N)=O)cn2)nc(N)n1 [Example 167, 6-[3-[[2-amino-6-(3-chloro-2-methyl-phenyl)pyrimidin-4-yl]amino]propylamino]pyridine-3-carboxamide] | < 200 | < 500
Cc1c(Cl)cccc1-c1cc(NCCCNc2nccc(C(N)=O)n2)nc(N)n1 [Example 168, 2-[3-[[2-amino-6-(3-chloro-2-methyl-phenyl)pyrimidin-4-yl]amino]propylamino]pyrimidine-4-carboxamide] | < 200 | < 500
Cc1c(Cl)cccc1-c1cc(NCCc2ccc(S(=O)(=O)C(C)C)cc2)nc(N)n1 [Example 169, 6-(3-chloro-2-methyl-phenyl)-N4-[2-(4-isopropylsulfonylphenyl)ethyl]pyrimidine-2,4-diamine] | < 200 | < 500
Cc1c(Cl)cccc1-c1cc(NCCc2cccc(S(=O)(=O)C(C)C)c2)nc(N)n1 [Example 170] | < 200 | < 500
Cc1c(Cl)cccc1-c1cc(NCCc2ccc(C(N)=O)c(F)c2)nc(N)n1 [Example 171, 4-[2-[[2-amino-6-(3-chloro-2-methyl-phenyl)pyrimidin-4-yl]amino]ethyl]-2-fluoro-benzamide] | < 200 | < 500
Cc1c(Cl)cccc1-c1cc(NCCc2ccc(S(C)(=O)=O)c(F)c2)nc(N)n1 [Example 172, 6-(3-chloro-2-methyl-phenyl)-N4-[2-(3-fluoro-4-methylsulfonyl-phenyl)ethyl]pyrimidine-2,4-diamine] | < 200 | < 500
Cc1c(Cl)cccc1-c1cc(NCCc2ccc(O)c(C(N)=O)c2)nc(N)n1 [Example 173, 5-[2-[[2-amino-6-(3-chloro-2-methyl-phenyl)pyrimidin-4-yl]amino]ethyl]-2-hydroxy-benzamide] | < 200 | < 500
Cc1c(Cl)cccc1-c1cc(NCCSc2nccc(C(N)=O)n2)nc(N)n1 [Example 174, 2-[2-[[2-amino-6-(3-chloro-2-methyl-phenyl)pyrimidin-4-yl]amino]ethylsulfanyl]pyrimidine-4-carboxamide] | < 200 | < 500
Cc1c(Cl)cccc1-c1cc(NCCSCc2ccc(S(C)(=O)=O)cc2)nc(N)n1 [Example 176, 6-(3-chloro-2-methyl-phenyl)-N4-[2-[(4-methylsulfonylphenyl)methylsulfanyl]ethyl]pyrimidine-2,4-diamine] | < 200 | < 500
Cc1c(Cl)cccc1-c1cc(NCCc2ccc(C(=O)OC(C)C)cc2)nc(N)n1 [Example 178, Isopropyl 4-[2-[[2-amino-6-(3-chloro-2-methyl-phenyl)pyrimidin-4-yl]amino]ethyl]benzoate] | < 200 | < 500
Cc1c(Cl)cccc1-c1cc(NCCSc2ccc(S(N)(=O)=O)cn2)nc(N)n1 [Example 180, 6-[2-[[2-amino-6-(3-chloro-2-methyl-phenyl)pyrimidin-4-yl]amino]ethylsulfanyl]pyridine-3-sulfonamide] | < 200 | < 500
COC(=O)c1ccc(CSCCNc2cc(-c3cccc(Cl)c3C)nc(N)n2)cc1 [Example 181, methyl 4-[2-[[2-amino-6-(3-chloro-2-methyl-phenyl)pyrimidin-4-yl]amino]ethylsulfanylmethyl]benzoate] | < 200 | < 500
COC(=O)c1ccc(CCNc2cc(-c3cccc(Cl)c3C)nc(N)n2)cc1 [Example 182, methyl 4-[2-[[2-amino-6-(3-chloro-2-methyl-phenyl)pyrimidin-4-yl]amino]ethyl]benzoate] | < 200 | < 500
CCOC(=O)c1ccc(CCNc2cc(-c3cccc(Cl)c3C)nc(N)n2)cc1 [Example 183, ethyl 4-[2-[[2-amino-6-(3-chloro-2-methyl-phenyl)pyrimidin-4-yl]amino]ethyl]benzoate] | < 200 | < 500
CCCOC(=O)c1ccc(CCNc2cc(-c3cccc(Cl)c3C)nc(N)n2)cc1 [Example 184, propyl 4-[2-[[2-amino-6-(3-chloro-2-methyl-phenyl)pyrimidin-4-yl]amino]ethyl]benzoate] | < 200 | < 500

Compound | IC50 (MTH1) [nM] | IC50 (cancer cell) [nM]
Cc1c(Cl)cccc1-c1cc(NCCc2ccc(C(=O)OCCO)cc2)nc(N)n1 [Example 185, 2-hydroxyethyl 4-[2-[[2-amino-6-(3-chloro-2-methyl-phenyl)pyrimidin-4-yl]amino]ethyl]benzoate] | < 200 | < 500
Cc1c(Cl)cccc1-c1cc(NCCc2ccc(C(=O)OCCS(C)(=O)=O)cc2)nc(N)n1 [Example 186, 2-methylsulfonylethyl 4-[2-[[2-amino-6-(3-chloro-2-methyl-phenyl)pyrimidin-4-yl]amino]ethyl]benzoate] | < 200 | < 500
Cc1c(Cl)cccc1-c1cc(NCCc2ccc(C(=O)OCC(O)CO)cc2)nc(N)n1 (centres unmarked) [Example 187, 2,3-dihydroxypropyl 4-[2-[[2-amino-6-(3-chloro-2-methyl-phenyl)pyrimidin-4-yl]amino]ethyl]benzoate] | < 200 | < 500
Cc1c(Cl)cccc1-c1cc(NCCNc2ccc(S(C)(=O)=O)nc2)nc(N)n1 [Example 188, 6-(3-chloro-2-methyl-phenyl)-N4-[2-[(6-methylsulfonyl-3-pyridyl)amino]ethyl]pyrimidine-2,4-diamine] | < 200 | < 500
CC(=O)Nc1ccc(NCCNc2cc(-c3cccc(Cl)c3C)nc(N)n2)cc1C [Example 189, N-[4-[2-[[2-amino-6-(3-chloro-2-methyl-phenyl)pyrimidin-4-yl]amino]ethylamino]-2-methyl-phenyl]acetamide] | < 200 | < 500
CCc1ccc(CCNc2cc(-c3cccc(Cl)c3C)nc(N)n2)cc1 [Example 191, 6-(3-chloro-2-methyl-phenyl)-N4-[2-(4-ethylphenyl)ethyl]pyrimidine-2,4-diamine] | < 200 | < 500
Cc1c(Cl)cccc1-c1cc(NCCc2ccc(C(=O)NC(C)CO)cc2)nc(N)n1 (centres unmarked) [Example 194, 4-(2-{[2-amino-6-(3-chloro-2-methylphenyl)pyrimidin-4-yl]amino}ethyl)-N-(1-hydroxypropan-2-yl)benzamide] | < 200 | < 500
Cc1c(Cl)cccc1-c1cc(NCCc2ccc(C(=O)N3CCN(C)CC3)cc2)nc(N)n1 [Example 195, 6-(3-chloro-2-methylphenyl)-4-N-{2-[4-(4-methylpiperazine-1-carbonyl)phenyl]ethyl}pyrimidine-2,4-diamine] | < 200 | < 500
Cc1c(Cl)cccc1-c1cc(NCCc2ccc([S+](C)[O-])cc2)nc(N)n1 (centres unmarked) [Example 196, 6-(3-chloro-2-methylphenyl)-N4-[2-(4-methanesulfinylphenyl)ethyl]pyrimidine-2,4-diamine] | < 200 | < 500
Cc1c(-c2cc(NCCc3ccc(S(C)(=O)=O)cc3)nc(N)n2)cccc1C(F)(F)F [Example 198, N4-[2-(4-methanesulfonylphenyl)ethyl]-6-[2-methyl-3-(trifluoromethyl)phenyl]pyrimidine-2,4-diamine] | < 200 | < 500
Cc1c(Cl)cccc1-c1cc(NCCOc2nccc3occc23)nc(N)n1 [Example 200, 6-(3-chloro-2-methylphenyl)-N4-(2-{furo[3,2-c]pyridin-4-yloxy}ethyl)pyrimidine-2,4-diamine] | < 200 | < 500
Cc1c(Cl)cccc1-c1cc(NCCOc2ccc(C(N)=O)cc2)nc(N)n1 [Example 201] | < 200 | < 500
Cc1c(Cl)cccc1-c1cc(NCCOc2ccc(/C(N)=N/O)cc2)nc(N)n1 [Example 203, (Z)-4-(2-{[2-amino-6-(3-chloro-2-methylphenyl)pyrimidin-4-yl]amino}ethoxy)-N′-hydroxybenzene-1-carboximidamide] | < 200 | < 500
Cc1c(Cl)cccc1-c1cc(NCCCOc2ccc(S(C)(=O)=O)cc2)nc(N)n1 [Example 204, 6-(3-chloro-2-methylphenyl)-N4-[3-(4-methanesulfonylphenoxy)propyl]pyrimidine-2,4-diamine] | < 200 | < 500
Cc1c(Cl)cccc1-c1cc(NCCCOc2nccc(C(N)=O)n2)nc(N)n1 [Example 205, 2-(3-{[2-amino-6-(3-chloro-2-methylphenyl)pyrimidin-4-yl]amino}propoxy)pyrimidine-4-carboxamide] | < 200 | < 500
Cc1c(Cl)cccc1-c1cc(NCCCOc2ccc(C(N)=O)cn2)nc(N)n1 [Example 206, 6-(3-{[2-amino-6-(3-chloro-2-methylphenyl)pyrimidin-4-yl]amino}propoxy)pyridine-3-carboxamide] | < 200 | < 500
Cc1c(Cl)cccc1-c1cc(NCCc2ccc(S(=O)(=O)N3CCOCC3)cc2)nc(N)n1 [Example 207, 6-(3-chloro-2-methylphenyl)-N4-{2-[4-(morpholine-4-sulfonyl)phenyl]ethyl}pyrimidine-2,4-diamine] | < 200 | < 500
